Non-standard residues stand in square brackets, D forms with d. Residues, ends and D or L forms follow the SMILES beside them. ξ: configuration not given here. *: point of attachment. ξTHIQ1CO(6-Me) = Cc1ccc2c(c1)CCNC2C(=O)O; X1 = O=C(O)CC(N*)C(=O)COc1c(F)cccc1F; Quinaldoyl = O=C(c1ccc2ccccc2n1)*
Experiments:
[1] = biological target: T1, human active recombinant caspase-2 (Homo sapiens, UniProt P42575); test: In vitro caspase activity and inhibition assay (IC50), Caspase-2; format: biochemical
T1 sequence (P42575 170-325 limits assumed): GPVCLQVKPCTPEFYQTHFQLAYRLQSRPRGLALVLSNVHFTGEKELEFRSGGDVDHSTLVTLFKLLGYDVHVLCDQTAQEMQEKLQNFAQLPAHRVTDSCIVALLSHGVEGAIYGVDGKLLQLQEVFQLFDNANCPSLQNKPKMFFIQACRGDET
T1 sequence (P42575 348-452 limits assumed): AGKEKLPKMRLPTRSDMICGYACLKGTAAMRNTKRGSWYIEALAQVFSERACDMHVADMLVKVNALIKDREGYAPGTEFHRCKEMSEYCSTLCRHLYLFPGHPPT
Procedure: Stock solutions were stored at −80 °C.

HeLa cells = test: Vincristine-induced HeLa cell death (propidium iodide, flow cytometry); format: cell-based, human; conditions: indicated doses, 1 h pretreatment, 20 nM vincristine 44 h
Procedure: HeLa cells (obtained from ATCC) were cultured in Dulbecco’s Modified Eagle Medium (DMEM, High Glucose, GlutaMAX™, Pyruvate) supplemented with antibiotics and 10% fetal calf serum (FCS) (Gibco, Life Technologies) and maintained in T75 Flasks at 1 × 10^6 cells per flask. Twenty-four hours before treatments, HeLa cells were transferred to 6-well plates (8 × 10^4 cells/well). The lymphoblastoid cell line Molt4cl8 was a gift from Dr. Bernard Krust (Inserm, University Paris 5) and was cultured in RPMI 1640 Glutamax medium supplemented with Hepes, antibiotics, and 10% FCS. HEK293 cells were obtained from ATCC (CRL-1573) and cultured in DMEM with Glutamax and 25 mM glucose (Life Technologies) supplemented with 10% FCS and antibiotics. For cell death induction, the following agents were added to cell cultures: Vincristine (Sigma) and Panobistat (LBH589; Selleck). Cell death was analyzed using fluorescence microscopy (Axio-observer Z1, Zeiss; equipped with CCD camera CoolsnapHQ2, Ropert Scientific) and cytofluorometry (MACSQuant® VYB; Miltenyi Biotec, Bergisch Gladbach, Germany) after labeling with propidium iodide (1 µg/mL; 10 min; 37 °C; Life Technologies) and Hoechst 33342 (1 µg/mL; 5 min; RT; Sigma).
Fig. 2 q33 and h33 are protective against the cytocidal effect of Vincristine. a Vincristine induces HeLa cell death. Cells were incubated for 44 h at 37 °C with 20 nM Vincristine (VCR), then incubated with propidium iodide at 2 μg/mL for 10 min and analyzed by flow cytometry to quantify plasma membrane permeabilization. Histograms show fluorescence intensity detected by flow cytometry (one representative experiment) in the presence (VCR) or Absence (Co.) of Vincristine. % of propidium iodide-positive cells are indicated for both conditions. b Dose–response of Vincristine-induced cell death. HeLa cells were incubated and treated as in (a) with the indicated doses of Vincristine (VCR) and analyzed by flow cytometry. […] Representative fluorescence microscopy micrographs of cells treated for 44 h with 20 nM vincristine (VCR) or not (Co.) and stained with Hoechst 33342. Vincristine induces progressive nuclear changes with first condensed nuclei (arrows) and then apoptotic bodies (dashed arrow). d Broad-spectrum irreversible caspase inhibitors prevent vincristine-induced cell death. HeLa cells were pretreated for 1 hr with the indicated broad-spectrum irreversible caspases inhibitors (z-VAD(OMe)-fmk at 30 μM, Q-VD-OPh 30 μM, Emricasan 10 μM, or the negative control Q-VE-OPh 30 μM), then treated with vincristine as in panel (a), and analyzed by flow cytometry. Histograms show the mean ± SD of 3 independent experiments (***p value < 0.001). e Effect of the reversible Caspase-2 inhibitors q33 and h33 against vincristine-induced cell death. HeLa cells were pretreated for 1 h with the indicated doses of q33 or h33, then treated with vincristine as in panel a, and analyzed by flow cytometry. Histograms show the mean ± SD of three independent experiments (*p value < 0.1). TEXT PRINTED IN THE PICTURE: (a) VCR: 39,5 % DOUBTS OF THE COPYIST ABOUT THIS PICTURE: Panel a: the picture prints no measure beside "39,5 %" and "4.1%". I assigned 39,5 % to VCR only because it stands by the grey VCR peak. / Panel a: "4.1%" seems to belong to the untreated control (Co.). That is not a substance, so it is left out.
Fig. 5 LJ2 inhibits cell death induced by microtubule destabilization and hydroxamic acid-based deacetylase (HDAC) inhibition. a Effect of the irreversible Caspase-2 inhibitors LJ2 against vincristine-induced cell death. HeLa cells were pretreated for 1 h with the indicated doses of LJ2, Q-VD-OPh, or Q-LETD-OPh, then treated with vincristine (VCR) as in Fig. 2, then incubated with propidium iodide at 2 μg/mL for 10 min and analyzed by flow cytometry. Histogram data are mean ± SD (n = 3, *p value < 0.01). b Effect of Caspases-inhibitors against Panobistat (LBH589)-induced cell death. […]

Trypsin = test: Non-caspase enzyme assay, Trypsin; format: biochemical, human; conditions: concentrations up to 10 µM
Procedure: (§1) Stock solutions were stored at −80 °C. […]
(§2) Non-caspase enzyme assays
(§3) The human pro- kallikrein-1 (pro-hK1) was activated in a buffer containing: Tris-HCl 50 mM, CaCl2 10 mM, NaCl 150 mM, Brij-35 0,05% pH 7,5. Human pro-kallikrein-6 and -8 (pro-hK6 and 8 were activated using Lysyl-endopeptidase (Wako- BioProducts®) at a 1/500 weight ratio, in a buffer containing 50 mM Tris and 0,05% Brij-35 (pH 8). Kinetics using non-caspase enzymes for selectivity studies were done according to the following conditions.
(§4) Enzymes Substrates Buffers
(§5) Cathepsine B (0.2 nM) z-RR-AMC 20 µM Acétate de sodium 0,1 M; EDTA 1mM ; […]
(§6) Cathepsine L (1.2 nM) RLR-AMC 25 µM Acétate de sodium 0,1 M; EDTA 1mM ; […]
(§7) Cathepsine D (0.1 nM) Mca-Gly-Ly s-Pro-Ile-Leu-Phe-Phe- Citrate de Sodium 0,1 M; EDTA 2 mM ; Arg-Leu-Lys(Dnp)-D-Arg-NH2 10 µM Brij-35 0,01%; pH 4 hK1 (4 nM) Boc-VPR-AMC 100µM Tris 50mM; Citrate 1M; Brij-35 0.05%; pH7 hK6 (2 nM ) Boc-QAR -AMC 100 µM Tris 50mM; Citrate 1M; Brij-35 0.05%; pH7 hK8 (1 nM) Boc-VPR-AMC 100µM Tris 50mM; Citrate 1M; Brij-35 0.05%; pH7
(§8) Thrombine (10 mU/mL) Boc-VPR-AMC 100µM Tris 50mM; Citrate 1M; Brij-35 0.05%; pH7 Plasmine (4 nM ) Boc-QAR -AMC 100µM Tris 50mM; Citrate 1M; Brij-35 0.05%; pH7 Trypsine (0.1 nM) Boc-QAR -AMC 100µM Tris 50mM; Citrate 1M; Brij-35 0.05%; pH7

Kallikrein-1 = biological target: T2, Kallikrein-1 (Homo sapiens, UniProt P06870); test: Non-caspase enzyme assay, Kallikrein-1; format: biochemical; conditions: concentrations up to 10 µM
T2 construct: purchased R&D Systems 2337-SE-010
T2 sequence (P06870 25-262): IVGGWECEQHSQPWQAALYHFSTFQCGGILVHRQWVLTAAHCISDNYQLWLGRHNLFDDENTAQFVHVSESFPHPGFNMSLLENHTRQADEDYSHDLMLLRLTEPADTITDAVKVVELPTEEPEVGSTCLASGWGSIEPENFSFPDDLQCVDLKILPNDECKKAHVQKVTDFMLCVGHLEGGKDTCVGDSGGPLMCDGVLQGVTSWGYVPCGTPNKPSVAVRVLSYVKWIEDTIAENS
Procedure: as §1, §2, §3, §4, §5, §6, §7, §8

Kallikrein-6 = biological target: T3, Kallikrein-6 (Homo sapiens, UniProt Q92876); test: Non-caspase enzyme assay, Kallikrein-6; format: biochemical; conditions: concentrations up to 10 µM
T3 construct: purchased R&D Systems 5164-SE-010
Procedure: as §1, §2, §3, §4, §5, §6, §7, §8

| Compound | IC50 [1] | effect against vincristine-induced cell death (HeLa cells) | effect on Trypsin (Trypsin) | effect on Kallikrein-1 (Kallikrein-1) | effect on Kallikrein-6 (Kallikrein-6) |
| --- | --- | --- | --- | --- | --- |
| Cc1ccc2c(c1)CCN(C(=O)[C@@H](NC(=O)[C@H](CC(=O)O)NC(=O)[C@@H](NC(=O)c1ccc3ccccc3n1)C(C)C)C(C)C)C2C(=O)NC(CC(=O)O)C(=O)COc1c(F)cccc1F (stereo partly drawn) [LJ2, Quinolin-2-carbonyl-VDV-(methyl-isoquinolyl)-D-CH2-O(2,6F2)Ph] (Quinaldoyl-VDV[ξTHIQ1CO(6-Me)]-X1) | 370 ± 10 pM | significantly prevented Vincristin-induced cell death in a dose-dependent manner |  |  |  |
| CC(C)[C@H](NC(=O)c1ccc2ccccc2n1)C(=O)N[C@@H](CC(=O)O)C(=O)N[C@H](C(=O)N1CC[C@H](CC(C)(C)C)[C@@H]1C(=O)NC(CC(=O)O)C(=O)COc1c(F)cccc1F)C(C)C (some centres unmarked) [LJ3a] |  |  | very limited or no effect | very limited or no effect | very limited or no effect |
